Assays:
Progesterone receptor [1] = target: T1, Progesterone receptor (Homo sapiens, UniProt P06401); assay: Human progesterone receptor (hPR) agonist activity in T47D human breast cancer cell line; NA=not active; assay type: functional, cell-based
T1 sequence (P06401 whole entry): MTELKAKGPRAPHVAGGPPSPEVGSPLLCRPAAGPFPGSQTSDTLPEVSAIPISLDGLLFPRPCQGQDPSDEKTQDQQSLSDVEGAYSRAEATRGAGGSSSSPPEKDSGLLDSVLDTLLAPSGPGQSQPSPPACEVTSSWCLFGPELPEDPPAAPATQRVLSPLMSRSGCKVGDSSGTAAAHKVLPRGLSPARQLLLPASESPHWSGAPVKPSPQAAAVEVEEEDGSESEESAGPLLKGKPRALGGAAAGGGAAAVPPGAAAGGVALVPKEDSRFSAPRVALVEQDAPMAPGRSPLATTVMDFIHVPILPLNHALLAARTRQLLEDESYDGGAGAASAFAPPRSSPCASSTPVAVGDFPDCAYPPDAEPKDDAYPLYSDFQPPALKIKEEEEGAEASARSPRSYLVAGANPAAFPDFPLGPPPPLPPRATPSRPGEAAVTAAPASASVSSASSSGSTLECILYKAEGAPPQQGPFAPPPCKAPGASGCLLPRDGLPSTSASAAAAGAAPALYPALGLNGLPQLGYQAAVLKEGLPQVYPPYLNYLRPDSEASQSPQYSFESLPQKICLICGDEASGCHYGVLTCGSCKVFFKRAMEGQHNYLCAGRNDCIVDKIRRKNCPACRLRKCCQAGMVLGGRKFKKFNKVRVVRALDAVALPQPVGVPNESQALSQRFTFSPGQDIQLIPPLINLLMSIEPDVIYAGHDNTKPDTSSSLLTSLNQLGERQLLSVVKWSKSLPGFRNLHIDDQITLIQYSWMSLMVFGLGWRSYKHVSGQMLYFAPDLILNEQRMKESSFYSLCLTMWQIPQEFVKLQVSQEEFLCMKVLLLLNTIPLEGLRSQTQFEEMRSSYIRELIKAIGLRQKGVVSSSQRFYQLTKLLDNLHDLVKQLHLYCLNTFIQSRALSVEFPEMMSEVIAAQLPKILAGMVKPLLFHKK

Progesterone receptor [2] = target: T1, Progesterone receptor; assay: Human progesterone receptor (hPR) agonist activity using cotransfection assay in CV-1 cells.; assay type: functional, cell-based
Androgen receptor = target: T2, Androgen receptor (Homo sapiens, UniProt P10275); assay: Cross-reactivity as binding to human androgen receptor (hAR); assay type: functional
T2 sequence (P10275 whole entry): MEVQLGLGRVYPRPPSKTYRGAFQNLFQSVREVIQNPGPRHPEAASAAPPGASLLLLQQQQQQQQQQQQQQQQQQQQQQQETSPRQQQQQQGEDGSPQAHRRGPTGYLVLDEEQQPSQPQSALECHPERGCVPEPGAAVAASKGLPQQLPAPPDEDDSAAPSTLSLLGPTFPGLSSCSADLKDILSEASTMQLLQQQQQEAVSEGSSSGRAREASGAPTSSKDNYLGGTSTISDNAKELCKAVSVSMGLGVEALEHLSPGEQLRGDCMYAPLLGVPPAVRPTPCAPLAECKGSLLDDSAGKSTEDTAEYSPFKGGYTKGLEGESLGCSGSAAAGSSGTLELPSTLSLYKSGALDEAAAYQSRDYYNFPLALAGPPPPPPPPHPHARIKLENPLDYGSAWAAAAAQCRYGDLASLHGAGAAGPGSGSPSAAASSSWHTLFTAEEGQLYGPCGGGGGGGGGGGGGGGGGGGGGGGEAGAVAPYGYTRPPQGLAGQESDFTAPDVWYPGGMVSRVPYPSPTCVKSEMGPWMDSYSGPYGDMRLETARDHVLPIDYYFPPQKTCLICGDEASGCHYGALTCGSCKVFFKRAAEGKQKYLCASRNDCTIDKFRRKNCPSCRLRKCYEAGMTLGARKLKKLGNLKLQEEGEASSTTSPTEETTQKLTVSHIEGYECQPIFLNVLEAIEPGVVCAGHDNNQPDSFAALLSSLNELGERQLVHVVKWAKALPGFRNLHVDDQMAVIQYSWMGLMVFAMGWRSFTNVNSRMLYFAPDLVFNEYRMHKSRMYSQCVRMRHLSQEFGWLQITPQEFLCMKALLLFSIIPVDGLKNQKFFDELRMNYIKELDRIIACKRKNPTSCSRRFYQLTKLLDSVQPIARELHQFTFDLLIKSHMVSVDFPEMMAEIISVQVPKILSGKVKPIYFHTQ

Glucocorticoid receptor = target: T3, Glucocorticoid receptor (Homo sapiens, UniProt P04150); assay: Cross-reactivity as binding to human glucocorticoid receptor (hGR); assay type: functional
T3 sequence (P04150 whole entry): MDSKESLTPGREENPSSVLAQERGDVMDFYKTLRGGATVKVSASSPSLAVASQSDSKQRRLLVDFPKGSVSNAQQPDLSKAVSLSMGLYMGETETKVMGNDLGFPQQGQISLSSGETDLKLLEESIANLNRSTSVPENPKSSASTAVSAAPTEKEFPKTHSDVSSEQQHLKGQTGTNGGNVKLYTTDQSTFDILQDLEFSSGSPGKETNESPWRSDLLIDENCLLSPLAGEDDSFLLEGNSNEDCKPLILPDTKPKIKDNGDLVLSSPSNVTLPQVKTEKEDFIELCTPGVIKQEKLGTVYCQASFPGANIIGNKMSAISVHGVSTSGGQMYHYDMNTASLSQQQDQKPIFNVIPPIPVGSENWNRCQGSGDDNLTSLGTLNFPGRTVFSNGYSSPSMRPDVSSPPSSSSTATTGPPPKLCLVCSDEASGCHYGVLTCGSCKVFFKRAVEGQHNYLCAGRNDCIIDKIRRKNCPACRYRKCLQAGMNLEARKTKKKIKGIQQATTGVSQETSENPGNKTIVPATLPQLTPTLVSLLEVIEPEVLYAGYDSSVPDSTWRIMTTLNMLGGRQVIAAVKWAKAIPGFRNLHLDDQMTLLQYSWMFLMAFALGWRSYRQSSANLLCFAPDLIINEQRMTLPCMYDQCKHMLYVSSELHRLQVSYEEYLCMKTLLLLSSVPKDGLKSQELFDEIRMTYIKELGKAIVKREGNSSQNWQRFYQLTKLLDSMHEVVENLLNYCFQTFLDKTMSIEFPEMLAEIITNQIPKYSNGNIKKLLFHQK

[3] = target: T4, Mineralocorticoid receptor (Homo sapiens, UniProt P08235); assay: Cross-reactivity as binding to human mineralocorticoid receptor (hMR); assay type: functional
T4 sequence (P08235 whole entry): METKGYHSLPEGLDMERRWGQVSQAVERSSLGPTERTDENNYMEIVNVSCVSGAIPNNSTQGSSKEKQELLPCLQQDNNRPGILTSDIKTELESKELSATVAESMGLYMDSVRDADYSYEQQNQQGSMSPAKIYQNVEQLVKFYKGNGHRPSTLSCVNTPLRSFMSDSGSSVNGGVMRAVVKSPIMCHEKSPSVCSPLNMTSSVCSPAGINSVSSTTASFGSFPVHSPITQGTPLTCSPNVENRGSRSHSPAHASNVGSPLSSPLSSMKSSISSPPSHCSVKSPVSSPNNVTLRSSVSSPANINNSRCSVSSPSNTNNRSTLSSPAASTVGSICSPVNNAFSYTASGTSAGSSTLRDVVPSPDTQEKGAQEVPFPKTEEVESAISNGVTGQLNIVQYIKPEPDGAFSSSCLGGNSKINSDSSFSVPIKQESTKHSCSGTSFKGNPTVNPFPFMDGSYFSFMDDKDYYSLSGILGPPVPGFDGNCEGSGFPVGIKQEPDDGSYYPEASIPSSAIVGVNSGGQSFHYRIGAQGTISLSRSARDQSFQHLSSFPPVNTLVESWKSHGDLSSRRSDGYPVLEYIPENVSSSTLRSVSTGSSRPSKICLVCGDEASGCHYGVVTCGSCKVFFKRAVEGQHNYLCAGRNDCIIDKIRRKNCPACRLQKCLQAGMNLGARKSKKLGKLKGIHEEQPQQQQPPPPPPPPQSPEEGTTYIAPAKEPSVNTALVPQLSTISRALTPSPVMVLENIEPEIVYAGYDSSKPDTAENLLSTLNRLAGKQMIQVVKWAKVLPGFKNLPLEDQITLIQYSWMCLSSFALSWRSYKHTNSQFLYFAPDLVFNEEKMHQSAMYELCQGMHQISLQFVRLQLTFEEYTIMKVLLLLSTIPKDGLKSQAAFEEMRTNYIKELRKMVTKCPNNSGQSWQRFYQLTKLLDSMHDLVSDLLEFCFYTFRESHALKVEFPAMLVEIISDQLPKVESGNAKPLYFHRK

Progesterone receptor [4] = target: T1, Progesterone receptor; assay: Human progesterone receptor (hPR) agonist activity expressed in CV-1 cells; assay type: functional, cell-based
Progesterone receptor [5] = target: T1, Progesterone receptor; assay: Binding affinity against human progesterone receptor (hPR) in a competitive binding assay
Progesterone receptor [6] = target: T1, Progesterone receptor; assay: Antagonist activity against human progesterone receptor (hPR) using cotransfection assay in CV-1 cells; assay type: functional, cell-based
Progesterone receptor [7] = target: T1, Progesterone receptor; assay: Human progesterone receptor (hPR) agonist activity in T47D human breast cancer cell line; assay type: functional, cell-based
Progesterone receptor [8] = target: T1, Progesterone receptor; assay: Antagonist activity against human progesterone receptor (hPR) in T47D human breast cancer cell line; assay type: functional, cell-based

SMILES | EC50 (Progesterone receptor [1]) | EC50 (Progesterone receptor [2]) | Ki (Progesterone receptor [5]) [nM] | IC50 (Progesterone receptor [6]) [nM] | EC50 (Progesterone receptor [7]) [nM] | IC50 (Progesterone receptor [8]) [nM] | IC50 (Androgen receptor) [nM] | IC50 (Glucocorticoid receptor) [nM] | IC50 [3] [nM] | EC50 (Progesterone receptor [4]) [nM]
CN(C)c1ccc([C@H]2C[C@]3(C)[C@@H](CC[C@]3(O)CCCO)[C@@H]3CCC4=CC(=O)CCC4=C32)cc1 [ONAPRISTONE] | Not Active | Not Active | – | – | – | – | – | – | – | –
CC1(C)Nc2ccc(-c3csc(C#N)c3)cc2C(C)(C)C1=O | – | – | 12.4 | 14 | – | – | 1100 | 900 | 2700 | 1190
CC1=CC(C)(C)Nc2ccc(-c3ccc(Cl)s3)cc21 | – | Not Active | 12 | 43 | 2650 | 151 | – | – | – | –
CC1=CC(C)(C)Nc2ccc(-c3cccs3)cc21 | Not Active | Not Active | 237 | 416 | – | 700 | – | – | – | –
CC1=CC(C)(C)Nc2ccc(-c3sc(C#N)cc3C)cc21 | – | Not Active | 26 | 33 | 500 | 123 | 200 | 780 | 2000 | –
Cc1cc(C#N)sc1-c1ccc2c(c1)C(C)CC(C)(C)N2 (configuration not stated) | – | – | – | – | – | – | 45 | – | 1000 | –
CC1=CC(C)(C)Nc2ccc(-c3c(C)sc(C#N)c3C)cc21 | – | Not Active | 36 | 124 | 580 | 150 | – | – | – | –
CC1=CC(C)(C)Nc2ccc(-c3ccc(C=O)s3)cc21 | Not Active | Not Active | 80 | 729 | – | 78 | – | – | – | –
CC1=CC(C)(C)Nc2ccc(-c3csc(C=O)c3)cc21 | Not Active | Not Active | 37 | 245 | – | 102 | – | – | – | –

Continued, in another order:

EC50 (Progesterone receptor [1]) | EC50 (Progesterone receptor [2]) | Ki (Progesterone receptor [5]) [nM] | IC50 (Progesterone receptor [6]) [nM] | EC50 (Progesterone receptor [7]) [nM] | IC50 (Progesterone receptor [8]) [nM] | SMILES | IC50 (Androgen receptor) [nM] | IC50 (Glucocorticoid receptor) [nM] | IC50 [3] [nM] | EC50 (Progesterone receptor [4]) [nM]
Not Active | Not Active | 25 | 232 | – | 105 | CC1=CC(C)(C)Nc2ccc(-c3sccc3C)cc21 | – | – | – | –
Not Active | Not Active | 31 | 65 | – | 71 | CC1=CC(C)(C)Nc2ccc(-c3ccc(Br)s3)cc21 | – | – | – | –
– | Not Active | 433 | 52 | 700 | 120 | CC1=CC(C)(C)Nc2ccc(-c3sc(C#N)cc3Br)cc21 | – | – | – | –
Not Active | Not Active | > 100 | 318 | – | 278 | CC1=CC(C)(C)Nc2ccc(-c3ccsc3C#N)cc21 | – | – | – | –
– | Not Active | 31 | 109 | 1400 | 120 | CC1=CC(C)(C)Nc2ccc(-c3cc(C#N)sc3C)cc21 | – | – | – | –
Not Active | Not Active | 249 | 242 | – | 250 | CC1=CC(C)(C)Nc2ccc(-c3cc(Br)c(C#N)s3)cc21 | – | – | – | –
– | – | 32 | 105 | 3500 | 190 | CC1=CC(C)(C)Nc2ccc(-c3cc(Br)cs3)cc21 | – | – | – | –
